We go through 20 compounds from ChEMBL document CHEMBL1921694, “Structure-based design of isoindoline-1,3-diones and 2,3-dihydrophthalazine-1,4-diones as novel B-Raf inhibitors” (Bioorg Med Chem Lett, 2011).

Sequence of Serine/threonine-protein kinase B-raf (P15056 whole entry): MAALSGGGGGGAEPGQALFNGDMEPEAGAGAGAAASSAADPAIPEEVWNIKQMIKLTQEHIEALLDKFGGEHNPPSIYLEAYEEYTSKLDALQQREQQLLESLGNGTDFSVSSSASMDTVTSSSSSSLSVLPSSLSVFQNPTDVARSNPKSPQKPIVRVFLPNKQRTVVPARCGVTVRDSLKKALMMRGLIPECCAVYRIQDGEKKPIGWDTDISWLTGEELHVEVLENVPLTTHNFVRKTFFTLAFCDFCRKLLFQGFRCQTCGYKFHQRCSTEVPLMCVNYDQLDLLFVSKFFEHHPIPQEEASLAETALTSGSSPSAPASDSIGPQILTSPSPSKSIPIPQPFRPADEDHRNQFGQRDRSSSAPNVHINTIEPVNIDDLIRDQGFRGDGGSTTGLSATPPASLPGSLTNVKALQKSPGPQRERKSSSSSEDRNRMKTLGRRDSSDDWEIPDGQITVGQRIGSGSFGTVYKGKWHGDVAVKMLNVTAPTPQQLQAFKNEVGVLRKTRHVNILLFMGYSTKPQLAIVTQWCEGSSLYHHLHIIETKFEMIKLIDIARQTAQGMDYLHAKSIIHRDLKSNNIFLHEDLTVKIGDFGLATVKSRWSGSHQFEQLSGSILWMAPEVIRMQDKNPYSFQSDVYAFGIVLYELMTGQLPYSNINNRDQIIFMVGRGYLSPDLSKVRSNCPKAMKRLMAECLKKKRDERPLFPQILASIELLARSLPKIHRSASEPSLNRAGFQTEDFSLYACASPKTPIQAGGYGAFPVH

The experiment concerns the target Serine/threonine-protein kinase B-raf (Homo sapiens, UniProt P15056). As to the kind of experiment: Inhibition of human recombinant his6-tagged B-Raf expressed in Sf9 cells assessed as inhibition of MEK1 phosphorylation after 60 mins.
Take `O=C(Nc1cccc(Nc2cc3c(cc2Cl)C(=O)NC3=O)c1)c1cccc(OC(F)(F)F)c1`: the IC50 (usually the point on the concentration scale where inhibition reaches its midpoint) was determined as 0.006 µM.
The figure for `N#Cc1cccc(C(=O)Nc2cccc(Nc3cc4c(cc3Cl)C(=O)NC4=O)c2)c1` is 0.297 µM.
The figure for `O=c1[nH][nH]c(=O)c2cc(Nc3cccc(O)c3)c(Nc3cccc(O)c3)cc12` is 0.29 µM; for `O=C(Nc1cccc(Nc2cc3c(=O)[nH][nH]c(=O)c3cc2Cl)c1)c1cccc(Br)c1` it is 0.019 µM; for `N#Cc1cccc(C(=O)Nc2cccc(Nc3cc4c(=O)[nH][nH]c(=O)c4cc3Cl)c2)c1` it is 0.296 µM.
The figure for `O=C(Nc1cccc(Nc2cc3c(=O)[nH][nH]c(=O)c3cc2Cl)c1)c1cccc(OC(F)(F)F)c1` is 0.018 µM.
`O=C1NC(=O)c2cc(Nc3cccc(O)c3)c(Nc3ccccc3)cc21`: the IC50 was found to be 1.68 µM.
To `Cn1nc(C(C)(C)C)cc1C(=O)Nc1cccc(Nc2cc3c(cc2Cl)C(=O)NC3=O)c1` belongs 0.349 µM; to `O=C(Nc1cccc(Nc2cc3c(=O)[nH][nH]c(=O)c3cc2Cl)c1)c1cccc(I)c1`, 0.008 µM.
To `O=c1[nH][nH]c(=O)c2cc(Nc3cccc(O)c3)c(Nc3ccccc3)cc12` belongs 3.77 µM; to `Cn1nc(C(C)(C)C)cc1C(=O)Nc1cccc(Nc2cc3c(=O)[nH][nH]c(=O)c3cc2Cl)c1`, 0.293 µM.
To `O=C(Nc1cccc(Nc2cc3c(cc2Cl)C(=O)NC3=O)c1)c1cccc(Cl)c1` belongs 0.117 µM.
As for `O=C1NC(=O)c2cc(Nc3cccc(O)c3)c(Nc3cccc(O)c3)cc21`, the IC50 is 0.338 µM.
To `O=C(Nc1cccc(Nc2cc3c(cc2Cl)C(=O)NC3=O)c1)c1cccc(C(F)(F)F)c1` belongs 0.01 µM; to `NC(=O)c1ccc2[nH]cc(-c3cccc(O)c3)c2c1`, > 10 µM.
To `O=C(Nc1cccc(Nc2cc3c(=O)[nH][nH]c(=O)c3cc2Cl)c1)c1cccc(C(F)(F)F)c1` belongs 0.017 µM.
To `O=C(Nc1cccc(Nc2cc3c(cc2Cl)C(=O)NC3=O)c1)c1cccc(I)c1` belongs 0.008 µM.
Consider `O=C(Nc1cccc(Nc2cc3c(=O)[nH][nH]c(=O)c3cc2Cl)c1)c1cccc(Cl)c1`, for which the IC50 stood at 0.035 µM.
For the compound `O=C(Nc1cccc(Nc2cc3c(cc2Cl)C(=O)NC3=O)c1)c1cccc(Br)c1`, the IC50 is 0.035 µM.
To `O=C1NC(=O)c2cc3c(-c4cccc(O)c4)c[nH]c3cc21` belongs 3.47 µM.
